Data taken from patent publication US20160109459A1, “Compositions And Methods For Heparan Sulfate As A Biomarker For Transplant Rejection” (Duke University, priority 2012, published 2016).

What was measured:
BALB/c DCs = assay: DC production of pro-inflammatory cytokines by ELISA; format: cell-based, mouse
Procedure: FIG. 3A is a graph showing WT, TLR4^−/−, or MyD88^−/− BALB/c DCs (2×10^5/well) were stimulated with LPS (100 ng/mL), HS (100 μg/mL), or Pam3CSK4 (2 μg/mL), or left unstimulated (media) for 24 hours, and measured for surface expression of co-stimulatory molecules CD40 and CD80 by FACS analysis. FIGS. 3B and 3C are graphs showing WT, MyD88^−/−, and TLR4^−/− BALB/c cultured DCs were co-cultured with media alone, LPS, HS, or Pam3CSK4 as in (A) and culture supernatants were tested for IL-6 (B) and IL-12 (C) by ELISA. Data are representative of three independent experiments; *p<0.05 compared with media alone.
Lethally irradiated BALB/c recipients received either 1×10^7 B10.D2 TCD-BM only (Allo-BM), 1×10^7 B10.D2 TCD-BM and 5×10^6 B10.D2 LCs (Allo-BM+LC), or 1×10^7 BALB/c TCD-BM and 5×10^6 BALB/c LCs (Syn-BM+LC). FIG. 6A is a graph showing HS concentrations following transplantation as determined by ELISA at the indicated time points; n=2-5 samples per time point; *p<0.05 comparing Allo-BM+LC and Allo-BM at the indicated time point. FIG. 6B is a graph showing the half maximal effective concentration (EC50) of HS on DC stimulation, BALB/c DCs (2×10^5/well) following 24 hr of culture with differing concentrations of HS in triplicate and IL-6 production was tested by ELISA. Results are representative of three independent experiments.
FIG. 13 is a graph showing WT, MyD88^−/−, and TLR4^−/− BALB/c cultured DCs that were co-cultured with media alone, LPS, HS, or Pam3CSK4 and tested for TNF-α as determined by ELISA assay.
Cytokine analysis: Cell culture supernatants were obtained from DC cultures or T cell proliferation assays and assayed for IL-6, IL-12 and IFN-γ by ELISA (BD Biosciences) according to the manufacturer's standard protocols. HEK 293 supernatants were tested for human IL-8 by ELISA (BioLegend, San Diego, United States).
To determine if the in vivo concentrations of HS were sufficient to cause DC activation, the production of IL-6 by cultured DCs in response to a range of HS concentrations was tested (FIG. 6B).

human TLR4 = target: T1, human TLR4 (Homo sapiens, UniProt O00206); assay: NF-κB dual luciferase reporter assay in HEK TLR4-MD2-CD14 cells; format: cell-based; settings: HS 100 μg/mL, 6 hours, TLR4 expressing cell lines
T1 construct: expressed in transfected cells; host or cells: HEK 293 (gift from Dr. Michael Fessler, NIEHS)
T1 sequence (O00206 24-839): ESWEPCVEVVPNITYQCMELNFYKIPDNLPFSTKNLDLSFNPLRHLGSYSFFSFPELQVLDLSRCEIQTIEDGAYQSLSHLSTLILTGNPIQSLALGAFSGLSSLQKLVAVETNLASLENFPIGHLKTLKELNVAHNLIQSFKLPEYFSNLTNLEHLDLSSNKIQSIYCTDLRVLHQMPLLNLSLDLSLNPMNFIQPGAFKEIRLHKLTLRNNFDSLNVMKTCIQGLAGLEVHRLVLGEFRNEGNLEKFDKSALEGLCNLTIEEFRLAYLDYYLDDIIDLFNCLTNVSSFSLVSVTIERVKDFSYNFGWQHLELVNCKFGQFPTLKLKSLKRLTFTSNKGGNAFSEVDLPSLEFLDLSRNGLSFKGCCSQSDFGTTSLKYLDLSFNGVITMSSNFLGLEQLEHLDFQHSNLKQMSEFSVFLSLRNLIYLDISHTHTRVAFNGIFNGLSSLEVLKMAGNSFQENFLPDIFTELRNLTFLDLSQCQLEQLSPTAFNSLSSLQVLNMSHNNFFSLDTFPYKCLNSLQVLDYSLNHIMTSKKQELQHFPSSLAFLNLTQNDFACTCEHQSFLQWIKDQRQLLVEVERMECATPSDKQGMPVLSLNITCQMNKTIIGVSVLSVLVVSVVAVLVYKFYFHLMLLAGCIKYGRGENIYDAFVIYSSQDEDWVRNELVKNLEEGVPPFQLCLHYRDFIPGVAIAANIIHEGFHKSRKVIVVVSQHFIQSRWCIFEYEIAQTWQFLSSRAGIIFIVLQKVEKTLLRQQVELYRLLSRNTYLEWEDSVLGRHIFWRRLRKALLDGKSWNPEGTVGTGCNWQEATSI
T1 sequence (Q9Y6Y9 17-160 partner limits assumed): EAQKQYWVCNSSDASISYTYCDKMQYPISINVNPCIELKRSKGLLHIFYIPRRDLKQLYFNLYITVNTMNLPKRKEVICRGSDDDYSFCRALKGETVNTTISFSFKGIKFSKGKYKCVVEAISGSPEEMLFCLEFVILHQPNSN
Procedure: HEK cell lines stably expressing CD14 and MD2 alone (HEK MD2-CD14), or co-expressed with human TLR2 (HEK TLR2-MD2-CD14) or human TLR4 (HEK TLR4-MD2-CD14) were transfected with a plasmid encoding firefly luciferase (F) under control of the NF-κB promoter along with a plasmid expressing Renilla luciferase (R) under control of the thymidine kinase promoter as a transfection control. Cell lines were cultured for 6 hours with media alone, LPS (100 ng/mL), HS (100 μg/mL), or Pam3CSK4 (2 μg/mL). FIG. 5A is a graph showing the ratio of F/R was measured by dual luciferase reporter assay to determine NF-κB activation of lysed cells, *p<0.05 compared with media alone. FIG. 5B is a graph showing results supernatants analyzed for IL-8 production by ELISA. […]
Luciferase reporter assay: Luciferase activity was measured using the Dual-Luciferase Reporter Assay (Promega, Madison, Wis., USA) according to the manufacture's recommended protocol. Luminescence was measured using an LMax Luminometer (Molecular Devices, Sunnyvale, United States).
A heterodimer of different TLRs is required for some PAMPs. […] The ratio of luminescence produced by firefly luciferase to Renilla luciferase (F/R) was then measured in response to media alone, LPS, HS, and Pam3CSK4. The production of IL-8, which is downstream of NF-κB activation, by ELISA was also measured. […]

[1] = BALB/c DCs 2×10^5/well, 24 hr culture

heparan sulfate [HS]
concentration achieving maximal response (IL-6 production by DCs) (BALB/c DCs; [1]): 12.5 µg/mL
half maximal effective concentration (EC50) on DC stimulation (IL-6 production) (BALB/c DCs; [1]): approximately 4 μg/mL
production of IL-6 and IL-12 from TLR4−/− or MyD88−/− DCs (BALB/c DCs; HS 100 μg/mL, 24 h): but not from TLR4^−/− or MyD88^−/− DCs
production of IL-6 and IL-12 from WT DCs (BALB/c DCs; HS 100 μg/mL, 24 h, not inhibited by PMB): stimulated DCs to produce
DC expression of TNF-α (BALB/c DCs; TLR4- and MyD88-dependent): up-regulate
NF-κB activation (ratio F/R) (human TLR4): caused NF-κB activation
